Data reported in US11465986B2, “Crystal form of c-MET inhibitor and salt form thereof and preparation method therefor” (FUJIAN AKEYLINK BIOTECHNOLOGY CO., LTD., priority 2018, dated 2022).
Values joined by “and” are separate entries in the source; they are usually repeats but may differ in a detail not shown here. Equal values may be shown once. “Also recorded” adds a separate entry of the source.

Assays:
[1] = test system: human liver cancer MHCC97H cell xenograft tumor; test: In vivo efficacy, MHCC97H subcutaneous xenograft tumor model; parameters: species or system BALB/c nude mice; conditions: for tumor volume (24th day): 24th day after administration, average value±SEM; for T/C / TGI: based on the tumor volume on the 24th day after administration
Experimental: MHCC97H cells were cultured in a single layer in-vitro. The culturing condition was RPMI1640 medium supplemented with 10% heat-inactivated fetal bovine serum, 1% penicillin-streptomycin double antibody under 37° C., 5% carbon dioxide. Digestion and passage treatment with trypsin-EDTA was done twice a week. When the cells were in the exponential growing phase, the cells were collected, counted and inoculated.
BALB/c nude mice, male. 6-8 weeks old, weighting 18-22 g.
0.2 mL of a cell suspension containing 5×10^6 MHCC97H was subcutaneously inoculated into the right back of each mouse. Drugs were administered by group after the average tumor volume reached approximately 172 mm^3.
Investigation of whether the tumor growth was inhibited, delayed or cured. The diameters of the tumor were measured twice a week using a vernier caliper. The formula for calculating the tumor volume is V=0.5a×b^2, and a and b represent the long and short diameters of the tumor respectively. The antitumor effect (TGI) of the compound was evaluated by T-C (days) and TIC (%).
Remark: a. average value±SEM; b. p value was calculated based on the tumor volume.

[2] = Liver microsome metabolism, rat; assay type: in vitro ADME
[3] = Liver microsome metabolism, human; assay type: in vitro ADME
MHCC97-H cells [4] = test system: MHCC97-H cells
Experimental: The cell plates were incubated in a carbon dioxide incubator for 3 days.

[5] = Liver microsome metabolism, mouse; assay type: in vitro ADME
[6] = Solubility test in different solvents; assay type: physicochemical; conditions: 25° C.±2° C.
Experimental: 10 mg of the crystal form A of the compound represented by formula (I) was placed into a glass bottle, 1 mL of solvent was added thereto and the bottle was shaken vigorously for 30 seconds every 5 minutes at 25° C.±2° C., the dissolution was observed over 30 minutes. The corresponding data were recorded in the table.
For insoluble samples, another 1 mg of the crystal form A of the compound represented by formula (I) was placed into a glass bottle, an appropriate solvent was added thereto, and the bottle was shaken vigorously for 30 seconds every 5 minutes at 25° C.±2° C., the dissolution was observed over 30 minutes. The corresponding data were recorded in Table 10.

[7] = Stability test of the crystal forms (HPLC impurity content); assay type: physicochemical; conditions: for Impurity content, relative retention time 0.93 / Impurity content, relative retention time 1.07 / Total impurities / Impurity content, relative retention time 0.99 / Impurity content, relative retention time 1.39 / Impurity content, relative retention time 1.48 / Impurity content, relative retention time 1.05 / Impurity content, relative retention time 1.43: form A
Experimental: The method for High Performance Liquid Chromatograph (HPLC) in the present disclosure
Instrument Model: Agilent 1200 High Performance Liquid Chromatograph
The analysis method is as follows: […]
About 10 mg of the crystal form B of the compound represented by formula (II) was weighted and placed under stability test conditions, and the samples were collected and analyzed after 5 days, 10 days, and 1 month.
About 10 mg of the crystal form C of the compound represented by formula (III) was weighted and placed under stability test conditions, and the samples were collected and analyzed after 5 days, 10 days, and 1 month respectively.

[8] = Hygroscopicity study (weight gain over saturated ammonium chloride solution, 25° C., 24 hours); assay type: physicochemical
Experimental: The hygroscopicity was evaluated using the scales in the following Table 4:
3 dry glass weighing bottles with stopper (outer diameter of 50 mm, height of 30 mm) were placed in a desiccator having saturated ammonium chloride solution placed at the bottom, the weighing bottles were left open, and the desiccator was covered with lid, placed in a thermostat setting at 25° C. overnight.
The weighing bottles were took out and accurately weighed, the weight data were noted as m11, m12 and m13 respectively.
An appropriate amount of the crystal form A of the compound represented by formula (I), was spread in the weighed weighing bottles (the thickness of the sample was about 1 mm), and then accurately weighed, the weight data were noted as m21, m22 and m23, respectively.
The open weighing bottles and the bottle stoppers were placed in a desiccator having saturated ammonium chloride solution placed at the bottom, and the desiccator was covered with a lid, placed in a thermostat setting at 25° C. for 24 hours.
After standing for 24 hours, the weighing bottles were closed with the stoppers, then accurately weighed, and the weight data were noted as m31, m32 and m33.
Hygroscopicity weight gain was calculated, the calculation formula was as follows: Percentage gain=100%×(m3−m2)/(m2−m1)

[9] = Stability test of the crystal forms (HPLC impurity content); assay type: physicochemical; conditions: form A, 5 days
MHCC97-H cells [10] = conditions: read-out: IC50 on MHCC97-H cells; background section; cited from earlier work
[11] = 40° C. Relative humidity 75%, 1 month
[12] = 40° C. Relative humidity 75%, 2 months
[13] = 40° C. Relative humidity 75%, 10 days
[14] = 60° C. Relative humidity 75%, 1 month
[15] = 60° C. Relative humidity 75%, 2 months
[16] = 60° C. Relative humidity 75%, 10 days
[17] = Light (total illuminance = 1.2 × 106 Lux · hr/near ultraviolet = 200 w · hr/m^2)
[18] = Relative humidity 92.5%, 5 days
[19] = Relative humidity 92.5%, 10 days
[20] = liver microsomes, read-out: t1/2 by liver microsome metabolism

In the case of `C[C@H](c1cccc(-c2ncc(OCC3CCN(C)CC3)cn2)c1)n1cc(-c2cc(C#N)ccn2)cc(F)c1=O` [compound represented by formula (I)], the “tumor volume (24th day)” value [1] is reported as 153 ± 12 mm^3, the “Tumor inhibitory effect compared with tepotinib, in words” value ([1]; MHCC97H liver cancer cell subcutaneous xenograft tumor model) is reported as “better tumor inhibitory effect than tepotinib” and the T/C [1] is reported as 7.4%. The TGI [1] was 101.0%, the “t1/2 by liver microsome metabolism” value [2] was 36.5 min and the “t1/2 by liver microsome metabolism” value [3] was 62.1 min. The “Inhibitory activity on MHCC97H cell, in words” value (MHCC97-H cells [4]) was “good inhibitory activity” and the “t1/2 by liver microsome metabolism” value [5] was 49.1 min.
For `C[C@H](c1cccc(-c2ncc(OCC3CCN(C)CC3)cn2)c1)n1cc(-c2cc(C#N)ccn2)cc(F)c1=O` [crystal form A of the compound represented by formula (I)], the Solubility classification ([6]; 0.1N HCl) was “Soluble”, the Solubility classification ([6]; 0.1N NaOH) was “practically insoluble or insoluble; also recorded: Practically insoluble” and the Solubility classification ([6]; Acetonitrile) was “Very slightly soluble”. For the same compound, the Solubility classification ([6]; Diethylamine) was “practically insoluble or insoluble; also recorded: Practically insoluble”, the Solubility classification ([6]; Ethanol) was “very slightly soluble” and the Solubility classification ([6]; Ethyl acetate) was “Very slightly soluble”. The Solubility classification ([6]; N-Methylpyrrolidone) was “Very soluble”, the Solubility classification ([6]; Tetrahydrofuran) was “Sparingly soluble” and the Solubility classification ([6]; Trifluoroacetic acid) was “Sparingly soluble”. For the same compound, the Solubility classification ([6]; acetone) was “Slightly soluble”, the Solubility classification ([6]; n-Hexane) was “practically insoluble or insoluble; also recorded: Practically insoluble” and the Solubility classification ([6]; water) was “Very soluble”. The “Impurity content, relative retention time 0.93” value ([7]; 0 day) was 0.14%, the “Impurity content, relative retention time 1.07” value ([7]; 0 day) was 0.52% and the Total impurities ([7]; 0 day) was 0.67%. For the same compound, the “Impurity content, relative retention time 0.93” value [7, 11] was 0.12%, the “Impurity content, relative retention time 1.07” value [7, 11] was 0.45% and the Total impurities [7, 11] was 0.63%. The “Impurity content, relative retention time 0.93” value [7, 12] was 0.15%, the “Impurity content, relative retention time 1.07” value [7, 12] was 0.52% and the Total impurities [7, 12] was 0.66%. For the same compound, the “Impurity content, relative retention time 0.93” value [7, 13] was 0.14%, the “Impurity content, relative retention time 1.07” value [7, 13] was 0.5% and the Total impurities [7, 13] was 0.58%. For the same compound, the “Impurity content, relative retention time 0.93” value [7, 14] was 0.13%, the “Impurity content, relative retention time 1.07” value [7, 14] was 0.49% and the Total impurities [7, 14] was 0.62%. The “Impurity content, relative retention time 0.93” value [7, 15] was 0.17%, the “Impurity content, relative retention time 1.07” value [7, 15] was 0.59% and the Total impurities [7, 15] was 0.75%. The “Impurity content, relative retention time 0.93” value [7, 16] was 0.14%, the “Impurity content, relative retention time 1.07” value [7, 16] was 0.53% and the Total impurities [7, 16] was 0.67%. The “Impurity content, relative retention time 0.93” value ([7]; 60° C., 5 days) was 0.12%, the “Impurity content, relative retention time 0.99” value ([7]; 60° C., 5 days) was 0.13% and the “Impurity content, relative retention time 1.07” value ([7]; 60° C., 5 days) was 0.47%. The “Impurity content, relative retention time 1.39” value ([7]; 60° C., 5 days) was 0.17%, the “Impurity content, relative retention time 1.48” value ([7]; 60° C., 5 days) was 0.1% and the “Impurity content, relative retention time 0.93” value ([7]; 60° C., 10 days) was 0.12%. The “Impurity content, relative retention time 0.99” value ([7]; 60° C., 10 days) was 0.19%, the “Impurity content, relative retention time 1.05” value ([7]; 60° C., 10 days) was 0.14% and the “Impurity content, relative retention time 1.07” value ([7]; 60° C., 10 days) was 0.45%. The “Impurity content, relative retention time 1.39” value ([7]; 60° C., 10 days) was 0.41%, the “Impurity content, relative retention time 1.43” value ([7]; 60° C., 10 days) was 0.11% and the “Impurity content, relative retention time 1.48” value ([7]; 60° C., 10 days) was 0.23%. For the same compound, the Total impurities ([7]; 60° C., 10 days) was 1.64%, the “Impurity content, relative retention time 0.93” value [7, 17] was 0.11% and the “Impurity content, relative retention time 0.99” value [7, 17] was 0.29%. For the same compound, the “Impurity content, relative retention time 1.05” value [7, 17] was 0.8%, the “Impurity content, relative retention time 1.07” value [7, 17] was 0.46% and the “Impurity content, relative retention time 1.39” value [7, 17] was 3.98%. The “Impurity content, relative retention time 1.43” value [7, 17] was 1.18%, the “Impurity content, relative retention time 1.48” value [7, 17] was 1.62% and the Total impurities [7, 17] was 13.45%. The “Impurity content, relative retention time 0.93” value [7, 18] was 0.14%, the Total impurities [7, 18] was 0.67% and the “Impurity content, relative retention time 0.93” value [7, 19] was 0.14%. For the same compound, the “Impurity content, relative retention time 1.07” value [7, 19] was 0.52%, the Total impurities [7, 19] was 0.67% and the “Stability, conclusion in words” value ([7]; stress conditions (high temperature, high humidity, light)) was “good stability”. The “Average value of percentage gain (average hygroscopicity)” value ([8]; 25° C., 24 hours over saturated ammonium chloride solution, mean of 3 samples) was 0.060%, the “Percentage gain (hygroscopic weight gain), single samples” value ([8]; 25° C., 24 hours over saturated ammonium chloride solution, samples No. 1-3) was 0.03% and 0.08% and 0.07% and the Hygroscopicity scale ([8]; classified by the average weight gain) was “no or almost no hygroscopicity”. The Total impurities ([9]; 60° C.) was 0.99% and the “Impurity content, relative retention time 1.07” value ([9]; Relative humidity 92.5%) was 0.53%.
In the case of `CN1CCC(COc2cnc(-c3cccc(Cn4nc(-c5cccc(C#N)c5)ccc4=O)c3)nc2)CC1` [Tepotinib, reference compound], the IC50 (MHCC97-H cells [10]) is given as 6.2 nM, the “tumor volume (24th day)” value [1] is given as 255 ± 5 mm^3 and the T/C [1] is given as 12.4%. It also gave a TGI [1] of 95.6%, a half-life [2, 20] of 10.5 min and a half-life [3, 20] of 48.3 min. For the same compound, the half-life [5, 20] was 12.4 min.
